These results are taken from ChEMBL document CHEMBL3832065, “DailyMed|setid=d976599a-0ee0-4fa4-afe6-bdfbca570afe | OLANZAPINE - olanzapine tablet, film coated|Rebel Distributors Corp”.

What is called Tmax is the time from dosing to the highest level. In general, half-life refers to the time needed for the level to fall by half in the phase considered. Higher therefore signals slow decline.

A short description of series [1]: (§1) Evaluation of pharmacokinetic parameters for Olanzapine after single oral dose of Olanzapine tablet. In kind it is ADME, organism-based. The settings on record: human, in vivo, regimen Single dose.
Another series deals with Homo sapiens. The description is as §1. Type of series: ADME, organism-based. The settings on record: in vivo, po, dosed compound id 18, dosed compound name OLANZAPINE, regimen Single dose, tissue Plasma.
Where [2] appears, read: dosed compound id 18, dosed compound name OLANZAPINE, tissue Plasma.

Take `Cc1cc2c(s1)Nc1ccccc1N=C2N1CCN(C)CC1` [OLANZAPINE]: in series [1] (setting [2]), the Tmax was 6 h and the half-life is 30 h. Besides, in series [1] (dosed compound id 18, dosed compound name OLANZAPINE, tissue Plasma, read-out: CL(app) (converted)), the CL/F was 417 mL/min. In addition, in series [1] (dosed compound id 180, dosed compound name C-14 OLANZAPINE, tissue Urine, read-out: Excretion), the dose excreted amounted to 7%. In the series on Homo sapiens, the Vd amounted to 1000 L.
